In data set [1] the target is T1, Transcription intermediary factor 1-alpha (Homo sapiens, UniProt O15164).
T1 sequence (O15164 whole entry): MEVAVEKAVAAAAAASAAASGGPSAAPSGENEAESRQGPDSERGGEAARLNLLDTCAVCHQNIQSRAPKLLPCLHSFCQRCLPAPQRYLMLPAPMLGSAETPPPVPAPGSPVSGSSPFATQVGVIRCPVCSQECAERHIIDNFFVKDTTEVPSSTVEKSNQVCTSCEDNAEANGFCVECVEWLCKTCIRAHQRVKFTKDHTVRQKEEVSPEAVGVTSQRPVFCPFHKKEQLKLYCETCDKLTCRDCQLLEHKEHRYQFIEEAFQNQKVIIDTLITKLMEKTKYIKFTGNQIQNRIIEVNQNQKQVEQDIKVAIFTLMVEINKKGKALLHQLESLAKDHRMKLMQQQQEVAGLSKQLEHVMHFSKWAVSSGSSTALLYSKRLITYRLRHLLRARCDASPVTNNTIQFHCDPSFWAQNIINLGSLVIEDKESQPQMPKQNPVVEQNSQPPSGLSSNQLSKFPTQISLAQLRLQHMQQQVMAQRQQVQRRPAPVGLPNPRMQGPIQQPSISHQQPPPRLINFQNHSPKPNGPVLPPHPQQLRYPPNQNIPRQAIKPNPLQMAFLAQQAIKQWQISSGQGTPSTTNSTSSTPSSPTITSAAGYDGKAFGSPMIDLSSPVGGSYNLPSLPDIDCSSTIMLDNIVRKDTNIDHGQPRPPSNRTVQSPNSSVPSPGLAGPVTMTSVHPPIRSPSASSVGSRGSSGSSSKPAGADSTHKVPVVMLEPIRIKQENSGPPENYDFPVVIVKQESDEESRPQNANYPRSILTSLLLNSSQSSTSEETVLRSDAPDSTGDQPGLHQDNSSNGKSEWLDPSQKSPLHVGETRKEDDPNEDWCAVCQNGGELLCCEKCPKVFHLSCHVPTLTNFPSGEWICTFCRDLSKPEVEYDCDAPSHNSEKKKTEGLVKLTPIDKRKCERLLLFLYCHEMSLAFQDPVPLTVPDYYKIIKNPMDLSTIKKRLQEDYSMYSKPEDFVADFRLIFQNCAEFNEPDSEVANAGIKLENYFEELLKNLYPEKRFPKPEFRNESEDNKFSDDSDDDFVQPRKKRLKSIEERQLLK
The experiment in a line: Inhibition of recombinant human His-tagged TRIM24-PHD/bromodomain expressed in Escherichia coli strains BL21 (DE3) cells using biotinylated H3K23ac (1 to 33 residues) peptide after 1 hr by AlphaScreen assay. (Alpha assays give light when donor and acceptor beads are brought close together.)

For data set [2], the target named is T1, Transcription intermediary factor 1-alpha. The experiment in a line: Inhibition of Flag-tagged TRIM24-PHD/bromodomain (unknown origin) expressed in human HeLa cells for 2 hrs by AlphaLisa assay. The data set is classed as cell-based.
Data set [3] is described as follows: Kinetic solubility of compound in phosphate buffer at pH 7.
Data set [4] in a line: Apparent permeability from apical to basolateral side in human Caco2 cells. The conditions noted are these: Caco-2. (In general: Passage across Caco-2 layers is used to estimate intestinal permeability.)
The nature of data set [5]: Terminal half life in CD1 mouse at 1 mg/kg, iv. The data set is classed as ADME, organism-based. The conditions noted are these: in vivo, read-out: beta t1/2 (converted).
Data set [6] in a line: Oral bioavailability in CD1 mouse at 10 mg/kg. The data set is classed as ADME, organism-based. The conditions noted are these: in vivo.
A short description of data set [7]: Clearance in CD1 mouse at 1 mg/kg, iv. The data set is classed as ADME, organism-based. The conditions noted are these: in vivo.

SMILES strings stand for the structures. Values after ≈ are worked out from the molar mass of the structure shown.

For `CCCOc1cccc(Oc2cc3c(cc2NS(=O)(=O)c2ccc(OC)c(OC)c2)n(C)c(=O)n3C)c1`, the IC50 in data set [1] is 43 nM. This compound also came in with an EC50 in data set [2] of 830 nM. Moreover, the solubility (kinetic) in data set [3] amounted to 1.1 µM (≈ 0.58 µg/mL).
Turning to `Cn1c(=O)n(C)c2cc(NS(=O)(=O)c3ccc(C4CCCCC4)cc3)ccc21`, in data set [1], the IC50 was 1700 nM.
With `CCCOc1cccc(Oc2cc3c(cc2NS(=O)(=O)c2cn(C)c(C)n2)n(C)c(=O)n3C)c1`, the IC50 in data set [1] was 53 nM. In data set [2], the midpoint of the response, the EC50, lay at 950 nM. The kinetic solubility in data set [3] came to 62 µM (≈ 30.1 µg/mL).
Consider `CCCOc1cc(OCCCCN)cc(Oc2cc3c(cc2NS(=O)(=O)c2cn(C)cn2)n(C)c(=O)n3C)c1`, for which, in data set [1], the IC50 came to 7.9 nM. Also, a half-maximal response in data set [2] (EC50) required 120 nM.
Consider `CC(C)COc1ccc(S(=O)(=O)Nc2ccc3c(c2)CCC(=O)N3C)cc1`, for which, in data set [1], the IC50 turned out to be 3700 nM.
As to `COc1ccc(S(=O)(=O)Nc2cc3c(cc2Oc2cccc(OCCCCN(C)C)c2)n(C)c(=O)n3C)cc1OC`, the IC50 in data set [1] amounted to 270 nM. Besides, in data set [2], the response was half-maximal at 3200 nM (EC50). The kinetic solubility in data set [3] amounted to 66 µM (≈ 38.6 µg/mL).
`COc1ccc(S(=O)(=O)Nc2cc3c(cc2Oc2cccc(OCc4ccccc4)c2)n(C)c(=O)n3C)cc1OC`: the Papp A→B in data set [4] is 21 ×10⁻⁶ cm/s. For the same compound, the IC50 in data set [1] was found to be 140 nM. Also, in data set [2], the response was half-maximal at 3900 nM (EC50). In data set [3], this compound showed a solubility (kinetic) of 0.6 µM (≈ 0.345 µg/mL).
Take `Cn1c(=O)n(C)c2cc(NS(=O)(=O)c3ccccc3)ccc21`: the IC50 in data set [1] turned out to be 23000 nM.
As to `Cc1nc(-c2ccc3c(c2)CC(=O)N3C)cs1`, the IC50 in data set [1] is 8500 nM.
Still for that read-out and setting: the same measure for `CC(C)COc1ccc(S(=O)(=O)Nc2ccc3c(c2)n(C)c(=O)n3C)cc1`: 4000 nM; for `CSc1ccc(S(=O)(=O)Nc2ccc3c(c2)n(C)c(=O)n3C)cc1`: 4900 nM; for `CSc1ccc(S(=O)(=O)Nc2ccc3c(c2)CC(=O)N3C)cc1`: 17000 nM.
For the compound `CC(C)COc1cccc(Oc2cc3c(cc2NS(=O)(=O)C2CC2)n(C)c(=O)n3C)c1`, the 50% inhibitory concentration (IC50) in data set [1] amounted to 110 nM. In data set [2], this compound had an EC50 of 5000 nM. In data set [3], this compound registered a solubility (kinetic) of 0.78 µM (≈ 0.348 µg/mL).
As for `COc1cc2c(cc1NS(=O)(=O)c1ccccc1)CCC(=O)N2C`, the IC50 in data set [1] is 36000 nM.
For `Cn1cnc(S(=O)(=O)Nc2cc3c(cc2Oc2cccc(OCC4CCOC4)c2)n(C)c(=O)n3C)c1` (configuration not stated), in data set [1], the IC50 was 100 nM. A half-maximal effect in data set [2] (EC50) was put at 1900 nM. The kinetic solubility in data set [3] turned out to be 77 µM (≈ 39.5 µg/mL).
Regarding `Cc1nc(S(=O)(=O)Nc2cc3c(cc2Oc2cccc(OCC(C)C)c2)n(C)c(=O)n3C)cn1C`, in data set [1], the IC50 came out at 57 nM. In data set [3], the solubility (kinetic) is 87 µM (≈ 43.5 µg/mL).
Consider `Cc1nc(S(=O)(=O)Nc2cc3c(cc2Oc2cccc(OCc4ccccc4)c2)n(C)c(=O)n3C)cn1C`, for which the IC50 in data set [1] was determined as 270 nM. Besides, the midpoint of the response in data set [2], the EC50, lay at 4900 nM.
With `CCCOc1cc(OCCCCN(C)C)cc(Oc2cc3c(cc2NS(=O)(=O)c2ccc(OC)c(OC)c2)n(C)c(=O)n3C)c1`, in data set [5], the half-life is 42 min. Also, the bioavailability in data set [6] was 29%. In addition, the clearance in data set [7] was determined as 43 mL/min/kg. This compound also gave a kinetic solubility in data set [3] of 76 µM (≈ 48.9 µg/mL).
As for `CCCOc1cc(OCCCCCCO)cc(Oc2cc3c(cc2NS(=O)(=O)c2cn(C)cn2)n(C)c(=O)n3C)c1`, the IC50 in data set [1] came to 60 nM. For the same compound, in data set [2], the EC50 was 1800 nM.
`CCCOc1cc(OCCCCCCN)cc(Oc2cc3c(cc2NS(=O)(=O)c2ccc(OC)c(OC)c2)n(C)c(=O)n3C)c1`: the IC50 in data set [1] came out at 13 nM. In addition, in data set [2], the EC50 was determined as 170 nM.
In the case of `CCCOc1cc(OCCCCN)cc(Oc2cc3c(cc2NS(=O)(=O)c2ccc(OC)c(OC)c2)n(C)c(=O)n3C)c1`, the IC50 in data set [1] worked out at 8.3 nM. The same compound gave an EC50 in data set [2] of 59 nM. Besides, in data set [3], the solubility (kinetic) is 42 µM (≈ 25.8 µg/mL).
Regarding `COc1ccc(S(=O)(=O)Nc2ccc3c(c2)n(C)c(=O)n3C)cc1`, in data set [1], the IC50 amounted to 9300 nM.
As to `COc1cc2c(cc1NS(=O)(=O)c1cccc(C#N)c1)n(C)c(=O)n2C`, the IC50 in data set [1] was 10000 nM.
`Cn1cnc(S(=O)(=O)Nc2cc3c(cc2Oc2ccc(OCc4ccccc4)cc2)n(C)c(=O)n3C)c1`: the IC50 in data set [1] was 2000 nM. In addition, the EC50 in data set [2] is over 33000 nM.
Turning to `CN1C(=O)CCc2cc(NS(=O)(=O)c3ccc(C4CCCCC4)cc3)ccc21`, the IC50 in data set [1] worked out at 2800 nM.
`CC(C)COc1cccc(Oc2ccc3c(c2)n(C)c(=O)n3C)c1`: the IC50 in data set [1] amounted to 2400 nM. In addition, the EC50 in data set [2] is over 36000 nM. The compound further gave a solubility (kinetic) in data set [3] of 2.6 µM (≈ 0.849 µg/mL).
As for `CCCOc1cc(OCCCCCCNC(=O)OC(C)(C)C)cc(Oc2cc3c(cc2NS(=O)(=O)c2cn(C)cn2)n(C)c(=O)n3C)c1`, in data set [1], the IC50 is 160 nM. This compound also showed an EC50 in data set [2] of 5500 nM.
As for `CCCOc1cc(OCCCCCCN)cc(Oc2cc3c(cc2NS(=O)(=O)c2cn(C)cn2)n(C)c(=O)n3C)c1`, the IC50 in data set [1] is 10 nM. Besides, the EC50 in data set [2] worked out at 170 nM.
In the case of `CCCCOc1cccc(Oc2cc3c(cc2NS(=O)(=O)c2cn(C)c(C)n2)n(C)c(=O)n3C)c1`, the IC50 in data set [1] was found to be 160 nM. The compound further came in with an EC50 in data set [2] of 3000 nM.
On to `CCOc1cccc(Oc2cc3c(cc2NS(=O)(=O)c2cn(C)c(C)n2)n(C)c(=O)n3C)c1`, for which, in data set [1], the IC50 came to 180 nM. This compound also yielded an EC50 in data set [2] of 2300 nM. Also, in data set [3], the kinetic solubility turned out to be 74 µM (≈ 34.9 µg/mL).
On to `CSc1ccc(S(=O)(=O)Nc2ccc3c(c2)N(C)C(=O)CC3)cc1`, for which the IC50 in data set [1] is 14000 nM.
In the case of `COc1ccc(S(=O)(=O)Nc2ccc3c(c2)CCC(=O)N3C)c(OC)c1`, the IC50 in data set [1] was found to be 2500 nM.
On to `CCCOc1cc(OCCCCCN)cc(Oc2cc3c(cc2NS(=O)(=O)c2cn(C)cn2)n(C)c(=O)n3C)c1`, for which the IC50 in data set [1] was 11 nM. The response in data set [2] was half-maximal at 110 nM (EC50).
On the same counts, the results for `CCCOc1cc(OCCCN)cc(Oc2cc3c(cc2NS(=O)(=O)c2ccc(OC)c(OC)c2)n(C)c(=O)n3C)c1` are 13 nM and 120 nM.
For `CSc1ccc(S(=O)(=O)Nc2ccc3c(c2)CCC(=O)N3C)cc1`, the IC50 in data set [1] is 4800 nM.
Regarding `COCCCOc1cccc(Oc2cc3c(cc2NS(=O)(=O)c2cn(C)c(C)n2)n(C)c(=O)n3C)c1`, the IC50 in data set [1] worked out at 130 nM. The compound further yielded an EC50 in data set [2] of 2700 nM. In data set [3], this compound gave a solubility (kinetic) of 100 µM (≈ 51.6 µg/mL).
Regarding `COc1ccc(Oc2cc3c(cc2NS(=O)(=O)c2ccccc2)n(C)c(=O)n3C)cc1`, the IC50 in data set [1] came to 1500 nM.

A word on the IC50: it is the concentration needed to halve the response being measured. The term EC50 denotes the midpoint of the concentration-response curve. A higher EC50 goes with a less potent agent. As a reminder, the solubility (kinetic) is the concentration staying in solution when a stock, usually in DMSO, is diluted into the medium. The Papp A→B is how fast a substance crosses the layer from the apical side. Usually bioavailability stands for the share of a dose that reaches the circulation, judged against a reference dose that is usually intravenous. One may read the clearance as the rate of elimination divided by the concentration. Read a low clearance as inefficient removal.

The record behind these values is ChEMBL document CHEMBL3774340, “Structure-Guided Design of IACS-9571, a Selective High-Affinity Dual TRIM24-BRPF1 Bromodomain Inhibitor” (J Med Chem, 2016).
